Experimental data as given in US12582720B2, “Compound for preventing or treating lipid metabolism-related diseases” (Fudan University, priority 2020, dated 2026).

Legend:
db/db mice = test: Effect of the compound on db/db mouse; assay type: in vivo
From the text: Experimental animals: nineteen-week-old db/db male mice (C57BL/6J-Lepr^db/Lepr^db) were obtained from Shanghai Model Organisms Co., Ltd., and acclimatized for at least 1 week before experiments. The mice had ad libitum access to standard chow and water.
Normal control: The C57BL/6 male mice fed on standard irradiated chow diet (Shuyishuer Inc. cat. no. D12450J) from Changzhou Shuyishuer Biotechnology Co., Ltd. (Shuyishuer Inc.) were used as the normal control.
(§1) Mice were randomly divided into 7 groups, wherein 8 mice in each group, and the mice in each group were subjected to intraperitoneal injection to administer: (1) only vehicle (no DMSO) group: 0% DMSO+39% PEG300 (Selleck, cat. no. S6704)+5% Tween-80 (Selleck, cat. no. S6702)+56% distilled water, (2) DMSO group: 1% DMSO+39% PEG300+5% Tween-80+55% H2O (DMSO vehicle), (3) C3 group: Compound 3A was in DMSO vehicle, (4) C4 group: Compound 4A in DMSO vehicle, (5) SIII group: Sudan III DMSO vehicle, (6) GW5074 group: Compound A1 in DMSO vehicle, (7) DP group: Compound A5 in DMSO vehicle. For groups (3)-(7), the compound (30 mg/kg, administration volume 150 μL) was administered through intraperitoneally injection for consecutive 2 weeks, and once a day. The food and water intake were measured with an analytical electronic balance.
Bodyweight was weighed every day.
If time permitted, tail vein blood (30-50 μL) was collected every 1-3 days.
(§2) 24 hours after the time point of the last injection, end point maxillary surface blood sampling was performed on each mouse. All mice were Euthanized by cervical dislocation, and then tissue sample (e.g., liver samples) were obtained and stored in Eppendorf tubes at −80° C. for assay.
(§3) 12 days after initiation of administration, each mouse was scanned by a minispec nuclear magnetic resonance (NMR) instrument (Bruker LF50 II “Minispec” body composition analyzer, Bruker Optics) that was designed for experimental animals, and based on the measurement of solid and liquid parts of the samples, the body fat and lean body weight were determined by this device.
(§4) Serum: Tail vein blood samples (30-50 μL) were left to coagulate in […] blood collection tubes (Jiangsu Kangjian Medical Products Co., Ltd., model KJ002) at room temperature without interference, and then centrifuged at 2,000×g for 10 minutes at 4° C. to remove the clot. Supernatant was collected to obtain the serum.
(§5) Liver: Liver samples were obtained as described in (2). 100 mg of liver tissue was homogenized in 0.9 mL of absolute alcohol under ice-cold conditions, and then centrifuged (2,500 r.p.m/min, 10 min). Supernatant was collected, and then stored at −80° C.
(§6) The kits were used according to the instruction from manufacturer (TAG: TG kit, cat. no. A110-1-1; TC: T-CHO kit, cat. no. A111-1. FFA: NEFA kit, cat. No. A042-2-1; they were all from Nanjing Jiancheng Bioengineering Institute). TAG, TC and FFA levels in serum and liver samples were determined.
According to the lipidomic method as described above, the contents of liver total lipid, glycerolipid, sterol lipid, neutral sphingolipid and polar lipid were analyzed. The log 2-fold change (log2 FC) and statistical significance (p-value) relative to the DMSO group were calculated.

[1] = test system: lipid droplets in LC3B knockout HEK293T cells; test: Lipid droplets in LC3B knockout HEK293T cells; assay type: cell-based, human; settings: 5 μM
Method: The effect of conjugated compounds (Compound 1A, Compound 2A, Compound 3A or Compound 4A at a concentration of 5 μM) on lipid droplets in LC3B knockout HEK293T cells was tested by a method similar to Example 2.

LC3B = LC3B (Homo sapiens, UniProt Q9GZQ8); test: MST detection of affinity activity with LC3B; assay type: binding; set-up: His8 (with TEV site) (N); made in house; host or cells: Escherichia coli BL21(DE3)pLysS; settings: MST; read-out: Kd (μM), equilibrium dissociation constant between the conjugated compound and LC3B
Method: The recombinant GST-LC3B proteins were prepared and purified, dialyzed into 1×PBS, and then labelled with the red fluorophore with the protein labeling kit RED-NHS (Nanotemper, cat. no. L001).
The MST experiments were performed using the Monolith NT.115 instrument (NanoTemper Technologies). The reaction buffer contains 20 mM HEPES, pH 7.4, 150 mM NaCl, and the protein concentration was 500 nM. The MST data were collected under 40% infrared laser power and 20% light-emitting diode power. The data were analyzed by Nanotemper software.

[2] = test system: lipid droplets in 3T3-L1 fat precursor cell differentiated fat cells; test: Lipid droplets in 3T3-L1 fat precursor cell differentiated fat cells; assay type: cell-based, mouse; settings: 3T3-L1 differentiated fat cells, 24 h
NASH mice = test: Effect of the compound on NASH mouse model (CDAHFD); assay type: in vivo
Method: 15-micrometer cryosections were obtained from the liver (see “BODIPY staining of tissues” and processed for visualization of fibrosis by picro-sirius red staining as described in the literature (Sookoian S et al., Fatty Liver Disease Progresses into Severe NASH when Physiological Mechanisms of Tissue Homeostasis Collapse. Ann Hepatol 2018; 17:182-186.). The liver cryosections were washed with 1×PBS and then incubated at room temperature for 1 hour with the solution containing 0.1% vol/vol Direct Red 80 Direct Red 80 (for staining collagen in red as an indicator for liver fibrosis) and 0.04% Fast Green (Sigma-Aldrich, cat. no. F7258, for general protein staining as a background) in saturated aqueous solution of picric acid (Sigma., cat. no. P6744-1GA). The samples were imaged by using an Olympus inverted fluorescence microscope IX73, and the histological fibrosis images were analyzed by the imageJ software.
Experimental animals: ten-week-old C57BL/6 male mice were obtained from Hangzhou Ziyuan Inc. The mice had ad libitum access to water and a choline-deficient, L-amino acid-defined, high-fat diet (CDAHFD) containing 60% kcal fat obtained from Changzhou Shuyishuer Inc. for twelve weeks (including the two-week compound-injection period) to generate the non-alcoholic steatohepatitis (NASH) models.
as §1, §2, §3, §4, §5, §6

[3] = test system: autophagosome-lipid droplet colocalization in MEF cells; test: Colocalization of autophagosome and lipid droplets in mCherry-LC3B transfected MEF cells; assay type: cell-based, mouse; settings: 5 μM, 3 h, compared to DMSO control
Method: (1) In MEF cells, mCherry-LC3B was expressed by cDNA plasmid transfection.
(2) OA was added to the culture medium 30 hours after transfection to induce lipid droplets.
(3) Compounds were added to treat cells 6 hours after induction.
(4) 3 hours after compounds addition, cells were fixed and BODIPY stained.
(5) The coverslips laid in the multi-well plates were removed, and imaged with the Zeiss 880 confocal microscope after mounted to observe the aggregation of LC3 puncta around the lipid droplets.
In MEF cells, mCherry-LC3B was expressed by cDNA plasmid transfection. At 30th hour of overexpression, OA was added into cells for lipid droplet induction. 6 hours later, the compound was added for 3 hours' treatment, and then cells were subjected to immunostaining. […] Lipid droplets (green) were stained with BODIPY stain, and nucleus were indicated with DAPI stain. […] In FIG. 24, the colocalized autophagosome-lipid droplet was marked with circles.

Kd (LC3B): 0.39 µM
Structure (SMILES): O=c1cc(-c2ccccc2)c2c(OCCCCCCCCCCOc3ccc4ccccc4c3/N=N/c3ccc(/N=N/c4ccccc4)cc3)cc(O)cc2o1 [Compound 4A, 7-hydroxy-4-phenyl-5-((10-((1-((E)-(4-((E)-phenyldiazenyl)phenyl)diazenyl)naphthalen-2-yl)oxy)decyl)oxy)-2H-chromen-2-one]
body weight-normalized food intake (db/db mice): marginally significant increase
FFA levels in serum and liver (db/db mice; 30 mg/kg ip): significantly reduced
body weight-normalized food and water intake (db/db mice; 30 mg/kg ip): no significant reduction
weight loss (total body weight) (db/db mice; 30 mg/kg ip once a day, within 2 weeks): about 15%
ratio of body fat/lean body weight (db/db mice; 30 mg/kg ip, 12 days, vs DMSO group): significantly reduced
amount and size of liver lipid droplets (BODIPY493/503) (db/db mice; 30 mg/kg ip, 14 days): significantly reduced
liver weight (db/db mice; 30 mg/kg ip, 14 days, vs DMSO group): significantly reduced
TAG levels in liver and serum (db/db mice; 30 mg/kg ip, vs DMSO group): significantly reduced
TC levels in liver and serum (db/db mice; 30 mg/kg ip, vs DMSO group): significantly reduced
reduction of liver total lipid concentration (liver lipid level) (db/db mice; absolute quantitative lipidomics, vs DMSO group): 41.5±13.9%
TAG in liver (db/db mice; lipidomics): significantly reduced
most glycerolipids, sterol lipids and neutral sphingolipids in liver (db/db mice; lipidomics): reduced
other major neutral lipids, cholesteryl ester (ChE) and diglyceride (DG) in liver (db/db mice; lipidomics): slightly reduced
polar lipids, e.g., glycerophospholipids in liver (db/db mice; lipidomics): did not reduce
PE and PI (db/db mice; liver lipidomics): unaffected
TAG and ChE with different chain carbon numbers or saturated bond numbers (db/db mice; liver lipidomics): all reduced
reduction of lipid droplets induced by conjugated compounds after knockout of LC3B gene [1]: largely blocked
effect of the compound on lipid droplets under the treatment of NH4Cl ([2]; 5 μM + NH4Cl 5 mM): blocked
amount of lipid droplets ([2]; 5 μM): could reduce
size of lipid droplets ([2]; 5 μM): could change
liver weight (NASH mice; 30 mg/kg ip): significantly reduced
ratio of body fat/lean body weight (NASH mice; 30 mg/kg ip): significantly reduced
serum and liver TAG levels (NASH mice; 30 mg/kg ip): reduced
serum and liver TC levels (NASH mice; 30 mg/kg ip): reduced
body weight (NASH mice; 30 mg/kg ip once a day, 2 weeks): significantly reduced
liver lipid droplets (NASH mice; 30 mg/kg ip, 14 days): significantly reduced
degree of interstitial fibrosis in liver tissue (picro-sirius staining) (NASH mice; 30 mg/kg ip, 14 days, compared with control compound): significantly reduced
ratio of colocalization of red and green aggregation point (autophagosome-lipid droplet) [3]: significantly increased
